Assay results: patent US4443619A, “Chlorocitric acids” (Hoffmann-La Roche Inc., priority 1981, dated 1984)
Structures can show the parent of a compound that is named as a salt.

Legend:
[1] = Anorectic activities of stereoisomers: 3-day food consumption and body weight gain in meal-fed rats; type: in vivo, Charles River female rats; conditions: 1.32 mmoles/kg oral, 3 days, mean ± S.E.
Protocol: Charles River female rats (Charles River Breeding Laboratories, Wilmington, Mass.), weighing 196 to 210 g, were individually housed in wire-bottomed cages in a temperature-regulated (22° C.) light-controlled room (12 hr light, 6 a.m. to 6 p.m. and 12 hr dark, 6 p.m. to 6 a.m.). Animals were fasted 48 hr, then meal-fed a 70% glucose diet from 8 to 11 a.m. Following 5 to 12 days alimentation on the meal-feeding regimen, rats were dosed with the appropriate compounds orally by intubation 1/2 hr before the 3 hr meal for 3 days. The total food consumption and body weight gained during the 3 day period were determined. The control group consisted of 16 rats, while the experimental group consists of 8 rats.

[2] = Effect of stereoisomers of chlorocitric acid on food consumption in meal-fed rats (Example 14); type: in vivo, Charles River female rats; conditions: mean ± S.E.
Protocol: Animals were fasted 48 hr, then meal-fed the 70% glucose diet described by A. C. […] Following 5 to 12 days alimentation on the meal-feeding regimen, rats were dosed with the appropriate compounds orally by intubation 1/2 hr before the 3 hr meal. Food cups were weighed immediately after the meal. The control group consisted of 5 to 10 rats, while the experimental group consisted of 4 to 6 rats.

Stomach Emptying = assay: Effect on stomach emptying ([14C]glucose load) in rats (Example 25); type: in vivo; conditions: 0.33 mmoles/kg oral, 60 min after [14C]glucose load, mean ± S.E.
Protocol: Rats were trained to consume a 3 hr 70% glucose meal from 8 a.m. to 11 a.m. daily. On the experimental day, compounds were administered orally by intubation 30 min before a [^14 C]glucose load was given also by intubation. […] Sixty minutes later the rats were killed by decapitation; blood and stomachs were collected on ice.
Data are expressed as follows: dpm×10^3 per ml of serum and dpm×10^3 per stomach.

[3] = Body weight gain in 8 hour meal-fed Zucker rats (Example 18); type: in vivo, lean (Fa/-) and obese (fa/fa); conditions: 6 days, mean ± S.E.
Protocol: (§1) Lean (Fa/-) Zucker rats and obese (fa/fa) Zucker rats of both sexes were individually housed in wire-bottomed cages in a temperature-regulated (22° C.) light-controlled room (12 hr light, 6 a.m. to 6 p.m. and 12 hr dark, 6 p.m. to 6 a.m.). The animals were fed a high carbohydrate (70% glucose) diet ad libitum for 13 days, dosed with the indicated compounds by oral intubation for 9 days and allowed to recover for 3 days. The animals were then meal fed from 8 a.m. to 4 p.m. for a period of 5 days, following which they were continued on the same meal schedule for an additional 6 days. During the 6-day period, the animals were administered the indicated compounds by oral intubation at 8 a.m. and 12 p.m. Body weight gain during the 6-day period was determined.

[4] = Anorectic effect in 8 hour meal-fed Zucker rats (Example 17); type: in vivo, lean (Fa/-) and obese (fa/fa)
Protocol: as §1, with “p.m.” for “p.m. to”, “Food cups were weighed immediately after” for “Body weight gain during”, “meal.” for “6-day period was determined.”

[5] = Anorectic activity, body weight and carcass analysis in mammals (summary statements); type: in vivo; conditions: acute meal-fed assay utilizing three diets and pyramiding dose studies; compared with hydroxycitric acid
[6] = Food intake in dogs, pyramiding oral doses (Examples 26 and 27); type: in vivo, beagle dogs
Protocol: Twelve beagle dogs of both sexes weighing 7.6-12.2 kg were used for this test. The test compounds were contained in gelatin capsules for oral administration to two dogs of each sex. The animals were weighed and food consumption calculated daily excluding weekends throughout the test period. Each animal received 800 grams of diet daily consisting of 400 grams of Wayne pellet dog food mixed with 400 ml distilled water. The animals received pyramiding oral doses of the test compound over the three week period. On Monday and Tuesday of the first week the animals were weighed and food consumption was recorded (control). The animals received 3 mg/kg on Wednesday and 10 mg/kg on Friday of the first week. Doses of 30, 100 and 300 mg/kg were administered on Monday, Wednesday and Friday respectively during the second week. A final dose of 1000 mg/kg was administered on Monday of the third week.
Food intake was determined by the procedure by pyramiding doses described in Example 26.

[7] = Food consumption of three diets in meal-fed rats (Example 15); type: in vivo, Charles River female rats; conditions: mean ± S.E.
Protocol: Charles River female rats (Charles River Breeding Laboratories, Wilmington, Mass.), weighing 170 to 200 g, were individually housed in wire-bottomed cages in a temperature-regulated (22° C.) light-controlled room (12 hr light, 6 a.m. to 6 p.m. and 12 hr dark, 6 p.m. to 6 a.m.). Animals were fasted 48 hr, then meal-fed the indicated diets from 8 to 11 a.m. Following 5 to 12 days alimentation on the meal-feeding regimen, rats were dosed with the appropriate compounds orally by intubation 1/2 hr before the 3 hr meal. Food cups were weighed immediately after the 1st, 2nd and 3rd hr of the meal. The control groups consisted of 8 to 10 rats and the experimental group considered of 5 to 6 rats.

[8] = 0.66 mmoles/kg oral, control 8.2 ± 1.2
[9] = 2.63 mmoles/kg oral, control 13.5 ± 0.8
[10] = test day 20, no dose, (±) one animal, (+) and (-) two animals
[11] = 20% Corn Oil, 0.33 mmoles (75 mg)/kg oral
[12] = 20% Corn Oil, 0.66 mmoles (150 mg)/kg oral
[13] = 70% Glucose, 0.33 mmoles (75 mg)/kg oral
[14] = 70% Glucose, 0.66 mmoles (150 mg)/kg oral
[15] = Chow, 0.33 mmoles (75 mg)/kg oral
[16] = Chow, 0.66 mmoles (150 mg)/kg oral

Structure (SMILES): O=C(O)C[C@](O)(C(=O)O)[C@@H](Cl)C(=O)O [(-)-erythro-Chlorocitric acid, (-)-erythro-chlorocitric acid]
- 3-Day Body Weight Gain [1]: -4.8 ± 3.2 g
- 3-Day Food Consumption [1]: 24.5 ± 1.8 g
- Food consumption [2, 8]: 7.0 ± 1.9 g
- Food consumption [2, 9]: 7.2 ± 1.5 g
- Serum, total per ml (Stomach Emptying): 5.1 ± 0.4 dpm × 10^3
- Stomach Contents, total per stomach (Stomach Emptying): 1491 ± 232 dpm × 10^3

Structure (SMILES): O=C(O)CC(O)(CC(=O)O)C(=O)O [Trisodium Citrate, reference compound]
- Serum, total per ml (Stomach Emptying): 6.4 ± 0.1 dpm × 10^3
- Stomach Contents, total per stomach (Stomach Emptying): 1180 ± 208 dpm × 10^3

Structure (SMILES): O=C(O)CC(O)(CC(=O)O)C(=O)O [Citric Acid]
- Body Weight Gain ([3]; Fa/- lean, 1.32 mmoles/kg b.i.d. oral): 2.8 ± 3.7 g
- Body Weight Gain ([3]; fa/fa obese, 1.32 mmoles/kg b.i.d. oral): 3.4 ± 1.6 g
- Daily Food Consumption ([4]; Fa/- lean, 1.32 mmoles/kg oral, treatment day 1): 10.6 ± 1.2 g
- Daily Food Consumption ([4]; Fa/- lean, 1.32 mmoles/kg oral, treatment day 2): 10.0 ± 1.2 g
- Daily Food Consumption ([4]; Fa/- lean, 1.32 mmoles/kg oral, treatment day 3): 12.7 ± 1.0 g
- Daily Food Consumption ([4]; Fa/- lean, 1.32 mmoles/kg oral, treatment day 4): 11.9 ± 0.7 g
- Daily Food Consumption ([4]; Fa/- lean, 1.32 mmoles/kg oral, treatment day 5): 12.6 ± 0.8 g
- Daily Food Consumption ([4]; Fa/- lean, 1.32 mmoles/kg oral, treatment day 6): 13.1 ± 0.9 g
- Daily Food Consumption ([4]; Fa/- lean, 1.32 mmoles/kg, day 0 (pretreatment)): 11.0 ± 0.8 g
- Daily Food Consumption ([4]; fa/fa obese, 1.32 mmoles/kg oral, treatment day 1): 11.4 ± 0.8 g
- Daily Food Consumption ([4]; fa/fa obese, 1.32 mmoles/kg oral, treatment day 2): 13.8 ± 1.2 g
- Daily Food Consumption ([4]; fa/fa obese, 1.32 mmoles/kg oral, treatment day 3): 16.5 ± 1.0 g
- Daily Food Consumption ([4]; fa/fa obese, 1.32 mmoles/kg oral, treatment day 4): 14.8 ± 0.9 g
- Daily Food Consumption ([4]; fa/fa obese, 1.32 mmoles/kg oral, treatment day 5): 15.7 g
- Daily Food Consumption ([4]; fa/fa obese, 1.32 mmoles/kg oral, treatment day 6): 16.0 ± 1.0 g
- Daily Food Consumption ([4]; fa/fa obese, 1.32 mmoles/kg, day 0 (pretreatment)): 13.4 ± 0.8 g
- Food consumption [2, 9]: 12.7 ± 1.7 g
- anorectic activity as measured by reduction in food consumption [5]: inactive

Structure (SMILES): O=C(O)C[C@@](O)(C(=O)O)[C@H](Cl)C(=O)O [(+)-erythro-Chlorocitric acid, (+)-erythro-chlorocitric acid]
- 3-Day Body Weight Gain [1]: -1.5 ± 2.3 g
- 3-Day Food Consumption [1]: 31.8 ± 2.3 g
- Food consumption [2, 8]: 8.1 ± 1.6 g
- Food consumption [2, 9]: 10.5 ± 0.8 g
- Serum, total per ml (Stomach Emptying): 5.0 ± 0.4 dpm × 10^3
- Stomach Contents, total per stomach (Stomach Emptying): 1832 ± 160 dpm × 10^3

Structure (SMILES): O=C(O)C[C@](O)(C(=O)O)[C@H](Cl)C(=O)O [(+)-threo-Chlorocitric acid, (+)-threo-chlorocitric acid]
- 3-Day Body Weight Gain [1]: -3.5 ± 1.2 g
- 3-Day Food Consumption [1]: 26.5 ± 1.3 g
- Body Weight Gain ([3]; Fa/- lean, 0.66 mmoles/kg b.i.d. oral): 2.5 ± 2.3 g
- Body Weight Gain ([3]; fa/fa obese, 0.66 mmoles/kg b.i.d. oral): -3.6 ± 2.0 g
- Daily Food Consumption ([4]; Fa/- lean, 0.66 mmoles/kg oral, treatment day 1): 10.1 ± 0.8 g
- Daily Food Consumption ([4]; Fa/- lean, 0.66 mmoles/kg oral, treatment day 2): 8.7 ± 0.3 g
- Daily Food Consumption ([4]; Fa/- lean, 0.66 mmoles/kg oral, treatment day 3): 11.7 ± 0.7 g
- Daily Food Consumption ([4]; Fa/- lean, 0.66 mmoles/kg oral, treatment day 4): 9.8 ± 0.9 g
- Daily Food Consumption ([4]; Fa/- lean, 0.66 mmoles/kg oral, treatment day 5): 12.8 ± 0.9 g
- Daily Food Consumption ([4]; Fa/- lean, 0.66 mmoles/kg oral, treatment day 6): 11.4 ± 0.7 g
- Daily Food Consumption ([4]; Fa/- lean, 0.66 mmoles/kg, day 0 (pretreatment)): 10.6 ± 0.8 g
- Daily Food Consumption ([4]; fa/fa obese, 0.66 mmoles/kg oral, treatment day 1): 10.3 ± 0.4 g
- Daily Food Consumption ([4]; fa/fa obese, 0.66 mmoles/kg oral, treatment day 2): 8.8 ± 0.8 g
- Daily Food Consumption ([4]; fa/fa obese, 0.66 mmoles/kg oral, treatment day 3): 11.3 ± 1.0 g
- Daily Food Consumption ([4]; fa/fa obese, 0.66 mmoles/kg oral, treatment day 4): 11.6 ± 1.2 g
- Daily Food Consumption ([4]; fa/fa obese, 0.66 mmoles/kg oral, treatment day 5): 12.3 ± 1.5 g
- Daily Food Consumption ([4]; fa/fa obese, 0.66 mmoles/kg oral, treatment day 6): 14.2 ± 1.8 g
- Daily Food Consumption ([4]; fa/fa obese, 0.66 mmoles/kg, day 0 (pretreatment)): 14.3 ± 1.4 g
- Food consumption [2, 8]: 6.8 ± 1.0 g
- Food consumption [2, 9]: 5.1 ± 1.2 g
- Food Consumption, % of control [6, 10]: 96 % of control
- Food consumption [6, 10]: 583 ± 17 g
- Food consumption ([6]; test days -2, -1, before dosing (control period)): 610 ± 43 g
- Serum, total per ml (Stomach Emptying): 3.4 ± 0.6 dpm × 10^3
- Stomach Contents, total per stomach (Stomach Emptying): 1946 ± 361 dpm × 10^3
- Food intake, 1st hr [7, 11]: 7.1 ± 1.2 g
- Food intake, 2nd hr [7, 11]: 3.9 ± 0.5 g
- Food intake, 3rd hr [7, 11]: 3.2 ± 0.6 g
- Food intake, Total [7, 11]: 14.2 ± 1.2 g
- Food intake, 1st hr [7, 12]: 6.7 ± 1.6 g
- Food intake, 2nd hr [7, 12]: 3.1 ± 0.6 g
- Food intake, 3rd hr [7, 12]: 2.2 ± 0.7 g
- Food intake, Total [7, 12]: 12.3 ± 1.6 g
- Food intake, 1st hr [7, 13]: 6.2 ± 1.8 g
- Food intake, 2nd hr [7, 13]: 2.4 ± 0.8 g
- Food intake, 3rd hr [7, 13]: 2.4 ± 0.5 g
- Food intake, Total [7, 13]: 11.0 ± 2.3 g
- Food intake, 1st hr [7, 14]: 3.2 ± 0.5 g
- Food intake, 2nd hr [7, 14]: 5.1 ± 1.3 g
- Food intake, 3rd hr [7, 14]: 1.7 ± 0.3 g
- Food intake, Total [7, 14]: 10.1 ± 1.7 g
- Food intake, 1st hr [7, 15]: 7.4 ± 0.6 g
- Food intake, 2nd hr [7, 15]: 2.6 ± 0.7 g
- Food intake, 3rd hr [7, 15]: 2.2 ± 0.5 g
- Food intake, Total [7, 15]: 12.2 ± 0.4 g
- Food intake, 1st hr [7, 16]: 7.7 ± 0.5 g
- Food intake, 2nd hr [7, 16]: 3.9 ± 0.5 g
- Food intake, 3rd hr [7, 16]: 1.8 ± 0.9 g
- Food intake, Total [7, 16]: 13.4 ± 0.9 g
